# Laboratory results as given in patent publication US9487502B2, “Chemical compounds” (Syngenta Limited, priority 2013, dated 2016).
# Experiments:
# Assay type in all cases: in vivo
# Parameters in all cases: key: 5=total damage to plant; 0=no damage to plant
# Abutilon theophrasti [1] = test: Post-emergence herbicidal activity, ABUTH; conditions: 1000 g/Ha, sprayed post-emergence (8 days cultivation), evaluated after 13 days, scale 0-5
# Method: (§1) Seeds of a variety of test species were sown in standard soil in pots. After 8 days cultivation (post-emergence) under controlled conditions in a glasshouse (at 24/16° C., day/night; 14 hours light; 65% humidity), the plants were sprayed with an aqueous spray solution derived from the formulation of the technical active ingredient in acetone/water (50:50) solution containing 0.5% Tween 20 (polyoxyethelyene sorbitan monolaurate, CAS RN 9005-64-5). The test plants were then grown in a glasshouse under controlled conditions (at 24/16° C., day/night; 14 hours light; 65% humidity) and watered twice daily. After 13 days, the test was evaluated (5=total damage to plant; 0=no damage to plant).
# Amaranthus retroflexus [2] = test: Pre-emergence herbicidal activity, AMARE; conditions: 1000 g/Ha, sprayed pre-emergence, evaluated after 13 days, scale 0-5
# Method: as §1, with “After” for “After 8 days”, “for one day (pre-emergence)” for “(post-emergence)”
# Alopecurus myosuroides [3] = test: Post-emergence herbicidal activity, ALOMY; conditions: 1000 g/Ha, sprayed post-emergence (8 days cultivation), evaluated after 13 days, scale 0-5
# Method: as §1
# Zea mays [4] = test: Pre-emergence herbicidal activity, ZEAMX; conditions: 1000 g/Ha, sprayed pre-emergence, evaluated after 13 days, scale 0-5
# Method: as §1, with “After” for “After 8 days”, “for one day (pre-emergence)” for “(post-emergence)”
# Setaria faberi [5] = test: Pre-emergence herbicidal activity, SETFA; conditions: 1000 g/Ha, sprayed pre-emergence, evaluated after 13 days, scale 0-5
# Method: as §1, with “After” for “After 8 days”, “for one day (pre-emergence)” for “(post-emergence)”
# Zea mays [6] = test: Post-emergence herbicidal activity, ZEAMX; conditions: 1000 g/Ha, sprayed post-emergence (8 days cultivation), evaluated after 13 days, scale 0-5
# Method: as §1
# Echinochloa crus-galli [7] = test: Pre-emergence herbicidal activity, ECHCG; conditions: 1000 g/Ha, sprayed pre-emergence, evaluated after 13 days, scale 0-5
# Method: as §1, with “After” for “After 8 days”, “for one day (pre-emergence)” for “(post-emergence)”
# Echinochloa crus-galli [8] = test: Post-emergence herbicidal activity, ECHCG; conditions: 1000 g/Ha, sprayed post-emergence (8 days cultivation), evaluated after 13 days, scale 0-5
# Method: as §1
# Abutilon theophrasti [9] = test: Pre-emergence herbicidal activity, ABUTH; conditions: 1000 g/Ha, sprayed pre-emergence, evaluated after 13 days, scale 0-5
# Method: as §1, with “After” for “After 8 days”, “for one day (pre-emergence)” for “(post-emergence)”
# Setaria faberi [10] = test: Post-emergence herbicidal activity, SETFA; conditions: 1000 g/Ha, sprayed post-emergence (8 days cultivation), evaluated after 13 days, scale 0-5
# Method: as §1
# Amaranthus retroflexus [11] = test: Post-emergence herbicidal activity, AMARE; conditions: 1000 g/Ha, sprayed post-emergence (8 days cultivation), evaluated after 13 days, scale 0-5
# Method: as §1
# Alopecurus myosuroides [12] = test: Pre-emergence herbicidal activity, ALOMY; conditions: 1000 g/Ha, sprayed pre-emergence, evaluated after 13 days, scale 0-5
# Method: as §1, with “After” for “After 8 days”, “for one day (pre-emergence)” for “(post-emergence)”
SMILES,"ABUTH damage score, application post-emergence (Abutilon theophrasti [1])","AMARE damage score, application pre-emergence (Amaranthus retroflexus [2])","ALOMY damage score, application post-emergence (Alopecurus myosuroides [3])","ZEAMX damage score, application pre-emergence (Zea mays [4])","SETFA damage score, application pre-emergence (Setaria faberi [5])","ZEAMX damage score, application post-emergence (Zea mays [6])","ECHCG damage score, application pre-emergence (Echinochloa crus-galli [7])","ECHCG damage score, application post-emergence (Echinochloa crus-galli [8])","ABUTH damage score, application pre-emergence (Abutilon theophrasti [9])","SETFA damage score, application post-emergence (Setaria faberi [10])","AMARE damage score, application post-emergence (Amaranthus retroflexus [11])","ALOMY damage score, application pre-emergence (Alopecurus myosuroides [12])"
CCCOC1C(OCCC)N(c2cc(C(C)(C)C)ncn2)C(=O)N1C (stereo not drawn) [Example A28],0,0,0,0,0,0,0,0,0,0,0,0
"C=CCC1C(O)N(c2cc(C(C)(C)C)ncn2)C(=O)N1C (single isomer, unassigned) [Example A33]",5,5,5,3,4,3,5,5,5,5,5,4
CCOC1C(O)N(c2cc(C(C)(C)C)ncn2)C(=O)N1OC (stereo not drawn) [Example A8],5,5,5,1,5,4,5,5,5,5,5,5
CCC1C(O)N(c2cc(C(C)(C)C)ncn2)C(=O)N1C (stereo not drawn) [Example A16],5,5,3,2,5,4,4,5,5,5,5,2
COC1C(O)N(c2cc(C(C)(C)C)ncn2)C(=O)N1OC (stereo not drawn) [Example A7],5,5,5,4,4,4,4,4,5,5,5,4
CCC1C(O)N(c2cc(C(C)(C)C)ncn2)C(=O)N1OC (stereo not drawn) [Example A19],5,5,3,3,5,5,5,3,3,2,5,4
COCC1NC(=O)N(c2cc(C(C)(C)C)ncn2)C1O (stereo not drawn) [Example A30],5,5,4,1,4,1,4,3,5,4,5,4
C=CC1C(O)N(c2cc(C(C)(C)C)ncn2)C(=O)N1C (stereo not drawn) [Example A29],5,5,4,1,4,1,4,4,5,5,5,4
CN1C(=O)N(c2cc(C(C)(C)C)ncn2)C(O)C1C(F)(F)F (stereo not drawn) [Example A31],5,2,4,0,4,1,3,3,2,5,1,3
COC1C(O)N(c2cc(C(C)(C)C)ncn2)C(=O)N1C (stereo not drawn) [Example A11],5,5,4,1,4,1,3,4,4,5,5,3
